From patent US8192962B2, “Processes for detecting toxic substances” (Daikin Industries, Ltd., priority 2001, dated 2012)

Tested on: Metabolism protein genes
Experiment: DNA chip mRNA expression in yeast, metabolism protein genes (Table 7)
Format: cell-based, Saccharomyces cerevisiae S288C
Method: Yeast (Saccharomyces cerevisiae S288C (α SUC2mal mel gap2 CUP1)) were incubated at 25° C. on YPD medium (yeast extract 1%, polypepton 2%, glucose 2%). One of toxic chemical substances was added to the cells at logarithmic growth phase, and the cells were further incubated for two hours. Cells were cultured without any chemical substance in the same condition, and were used as control. Concentrations of the chemical substances were defined to inhibit the growth of the yeast but not lead to death.
After completion of the incubation, the culture was centrifuged to collect the cells. To the cells, sodium acetate buffer (50 mM sodium acetate, 10 mM EDTA, 1% SDS) was added, and the mixture was shaken at 65° C. for five minutes, followed by returning to room temperature, and obtaining the supernatant, of which the procedures were repeated two times. To the supernatant, ½ amount of a solution of phenol/chloroform was added, and the mixture was centrifuged to give a supernatant, which was added with an equal amount of chloroform, and the mixture was centrifuged to give a supernatant. To the supernatant, an equal amount of isopropanol containing 0.3 M sodium acetate was added, and the mixture was allowed to stand at room temperature for 30 minutes, after which the mixture was centrifuged to give a sediment of the whole RNAs. Seventy % ethanol was added to the sediment, and the mixture was again centrifuged to give a sediment, which was then dried and dissolved in water. mRNA was isolated from the whole RNAs as followings. In view of the fact that a poly A chain is attached to the 3′ terminus of mRNA, a polynucleotide having a poly T structure which was immobilized on the surface of latex beads was used to trap the mRNA, and then the mRNA was washed and eluted with spine column (Oligotex-dT30<Super>mRNA Purification Kit, Takara). Reverse transcription of the mRNA was conducted with a reverse transcriptase (Super Script II Reverse Transcriptase; catalogue No. 18064-014, GibcoBRL) using fluorescence-labeled nucleotides to give cDNAs that were introduced with Cy3-dUTP or Cy5-dUTP during the reverse transcription.
The labeled cDNAs were dissolved in TE buffer (10mM Tris-HCl/1 mM EDTA, pH8.0), and the solution was dropped on the DNA chip containing the whole genes of yeast (DNA Chip Research Inc. Japan) so that the cDNAs were hybridized on the DNA chip at 65° C. for over 12 hours. The fluoresces intensity of the DNA chip was read with a scanner, and the ratio relative to the fluorescence intensity resulting from the absence of chemical substance was estimated as the following, which is shown in Tables 1 to 9: […]

Question: Which results are given for `CN(C)C(=S)SSC(=S)N(C)C` [(10), Tetramethylthiuram disulfide]?
Answer: level of expressed mRNA in the presence/in the absence of chemical substance (yeast gene YJR143C): 0.3; The level of expressed mRNA in the presence of chemical substance/The level of expressed mRNA in the absence of chemical substance (yeast gene YJR148W): 3.0; The level of expressed mRNA in the presence of chemical substance/The level of expressed mRNA in the absence of chemical substance (yeast gene YJR155W): 18.8; The level of expressed mRNA in the presence of chemical substance/The level of expressed mRNA in the absence of chemical substance (yeast gene YKL001C): 3.4; The level of expressed mRNA in the presence of chemical substance/The level of expressed mRNA in the absence of chemical substance (yeast gene YKL035W): 1.2; level of expressed mRNA in the presence/in the absence of chemical substance (yeast gene YKL060C): 0.8; The level of expressed mRNA in the presence of chemical substance/The level of expressed mRNA in the absence of chemical substance (yeast gene YKL091C): 3.2; The level of expressed mRNA in the presence of chemical substance/The level of expressed mRNA in the absence of chemical substance (yeast gene YKL104C): 1.8; level of expressed mRNA in the presence/in the absence of chemical substance (yeast gene YKL148C): 1.7; The level of expressed mRNA in the presence of chemical substance/The level of expressed mRNA in the absence of chemical substance (yeast gene YKL152C): 1.5; level of expressed mRNA in the presence/in the absence of chemical substance (yeast gene YKL157W): 1.9; The level of expressed mRNA in the presence of chemical substance/The level of expressed mRNA in the absence of chemical substance (yeast gene YKL213C): 2.1; The level of expressed mRNA in the presence of chemical substance/The level of expressed mRNA in the absence of chemical substance (yeast gene YKL215C): 1.9; level of expressed mRNA in the presence/in the absence of chemical substance (yeast gene YKR034W): 0.6; The level of expressed mRNA in the presence of chemical substance/The level of expressed mRNA in the absence of chemical substance (yeast gene YKR039W): 2.0; The level of expressed mRNA in the presence of chemical substance/The level of expressed mRNA in the absence of chemical substance (yeast gene YLL058W): 3.6; level of expressed mRNA in the presence/in the absence of chemical substance (yeast gene YLR006C): 1.1; level of expressed mRNA in the presence/in the absence of chemical substance (yeast gene YLR044C): 1.2; level of expressed mRNA in the presence/in the absence of chemical substance (yeast gene YLR056W): 0.5; level of expressed mRNA in the presence/in the absence of chemical substance (yeast gene YLR058C): 0.1; level of expressed mRNA in the presence/in the absence of chemical substance (yeast gene YLR081W): 2.2; level of expressed mRNA in the presence/in the absence of chemical substance (yeast gene YLR089C): 0.8; The level of expressed mRNA in the presence of chemical substance/The level of expressed mRNA in the absence of chemical substance (yeast gene YLR180W): 0.9; The level of expressed mRNA in the presence of chemical substance/The level of expressed mRNA in the absence of chemical substance (yeast gene YLR273C): 2.4; level of expressed mRNA in the presence/in the absence of chemical substance (yeast gene YLR284C): 0.9; The level of expressed mRNA in the presence of chemical substance/The level of expressed mRNA in the absence of chemical substance (yeast gene YLR299W): 2.3; The level of expressed mRNA in the presence of chemical substance/The level of expressed mRNA in the absence of chemical substance (yeast gene YLR300W): 0.5; level of expressed mRNA in the presence/in the absence of chemical substance (yeast gene YLR304C): 2.2; The level of expressed mRNA in the presence of chemical substance/The level of expressed mRNA in the absence of chemical substance (yeast gene YLR307W): 0.7; The level of expressed mRNA in the presence of chemical substance/The level of expressed mRNA in the absence of chemical substance (yeast gene YLR348C): 1.3; level of expressed mRNA in the presence/in the absence of chemical substance (yeast gene YLR354C): 0.9; level of expressed mRNA in the presence/in the absence of chemical substance (yeast gene YLR372W): 0.1; level of expressed mRNA in the presence/in the absence of chemical substance (yeast gene YML022W): 0.6; The level of expressed mRNA in the presence of chemical substance/The level of expressed mRNA in the absence of chemical substance (yeast gene YML054C): 1.8; The level of expressed mRNA in the presence of chemical substance/The level of expressed mRNA in the absence of chemical substance (yeast gene YML070W): 3.9; The level of expressed mRNA in the presence of chemical substance/The level of expressed mRNA in the absence of chemical substance (yeast gene YML100W): 1.4; The level of expressed mRNA in the presence of chemical substance/The level of expressed mRNA in the absence of chemical substance (yeast gene YMR008C): 0.6; level of expressed mRNA in the presence/in the absence of chemical substance (yeast gene YMR011W): 0.7; level of expressed mRNA in the presence/in the absence of chemical substance (yeast gene YMR015C): 0.3; The level of expressed mRNA in the presence of chemical substance/The level of expressed mRNA in the absence of chemical substance (yeast gene YMR020W): 2.9; level of expressed mRNA in the presence/in the absence of chemical substance (yeast gene YMR083W): 1.1; The level of expressed mRNA in the presence of chemical substance/The level of expressed mRNA in the absence of chemical substance (yeast gene YMR105C): 2.9; The level of expressed mRNA in the presence of chemical substance/The level of expressed mRNA in the absence of chemical substance (yeast gene YMR189W): 0.9; level of expressed mRNA in the presence/in the absence of chemical substance (yeast gene YMR205C): 0.8; level of expressed mRNA in the presence/in the absence of chemical substance (yeast gene YMR261C): 1.3; The level of expressed mRNA in the presence of chemical substance/The level of expressed mRNA in the absence of chemical substance (yeast gene YMR271C): 4.4; The level of expressed mRNA in the presence of chemical substance/The level of expressed mRNA in the absence of chemical substance (yeast gene YMR296C): 0.6; level of expressed mRNA in the presence/in the absence of chemical substance (yeast gene YMR323W): 1.3; The level of expressed mRNA in the presence of chemical substance/The level of expressed mRNA in the absence of chemical substance (yeast gene YNL012W): 3.2; level of expressed mRNA in the presence/in the absence of chemical substance (yeast gene YNL025C): 1.8
